Patent publication US7141564B2, “Nitrogen-containing bicyclic heterocycles for use as antibacterials” (priority 2001, dated 2006)
Counter-ions that a name gives are not always drawn.

Test system: S. aureus WCUH29, S. pneumoniae 1629, H. influenzae ATCC 51907, M. catarrhalis Ravisio
Assay: MIC of further test compounds against an alternative selection of organisms
Format: cell-based
Conditions: versus all these organisms (alternative panel of 4 strains)
Procedure: The MIC […] of further test compounds against an alternative selection of organisms was determined: S. aureus WCUH29, S. pneumoniae 1629, H. influenzae ATCC 51907, M. catarrhalis Ravisio.

COCCOc1ccc2nccc(NC(=O)[C@]3(O)CC[C@@H](NCc4ccc5c(n4)NC(=O)CS5)CC3)c2n1 [Example 313, 1-Hydroxy-t-4-[(3-oxo-3,4-dihydro-2H-pyrido[3,2-b][1,4]thiazin-6-ylmethyl)-amino]-r-cyclohexanecarboxylic acid [6-(2-methoxy-ethoxy)-[1,5]naphthyridin-4-yl]-amide dihydrochloride]
MIC: ≤ 16 µg/mL
